According to patent US20260308172A1, “TRICYCLIC COMPOUNDS FOR TREATMENT OF BACTERIAL INFECTIONS” (priority 2023, published 2026):
Values after ≈ are worked out from the molar mass of the structure shown.

How the values were obtained:
[1] = tested on: Escherichia coli ATCC 25922; assay: Minimal Inhibitory Concentration (MIC) assay, Escherichia coli ATCC 25922; format: cell-based; details: ATCC25922, 20 h, read-out: MIC Escherichia coli ATCC25922
Experimental: (§1) The antibacterial activity of the compounds of the present invention was evaluated against the commonly used quality control strain Escherichia coli ATCC 25922 and the rifampin-resistant mutant strain Klebsiella pneumonia ATCC 43816. Both were originally derived from human clinical samples and are available from ATCC (American Type Culture Collection). The in vitro potency of compounds to inhibit Escherichia coli (ATCC 25922) and Klebsiella pneumonia (ATCC 43816) growth was assessed by the MIC (Minimal Inhibitory Concentration) broth dilution method. Specifically compound dilutions were prepared from 10 mM DMSO stock solutions as follows: i) serial 2-fold dilution in 20 μL DMSO were prepared in a master plate (Greiner, Cat No: 651201), ii) 180 μL sterile distilled water was added to each aliquot and iii) 10 μL diluted compounds were transferred into a new assay plate (Costar, 3599).
(§2) Vials of each test microorganisms were maintained frozen in the vapor phase of a liquid nitrogen freezer. Single-use frozen vials of the two strains Escherichia coli ATCC 25922 (KWIKSTIK, 0335K) and Klebsiella pneumonia ATCC 43816, with predetermined CFU/mL, were taken out from the freezer, thawed at room temperature, and diluted in Cation-Adjusted Mueller Hinton Broth (CAMHB) to achieve a final inoculum of 5×10^5 CFU/mL. 90 μL bacteria containing broth was dispensed to the assay plate containing the pre-dispensed compound dilutions and mixed by pipetting 5 times.
(§3) Then the assay plates were incubated for 20 hours at 35° C. in ambient air. Following incubation, the MIC (μg/mL), the lowest concentration of drug that inhibits visible growth of the microorganism was read with the help of a magnification mirror and recorded.

[2] = tested on: Klebsiella pneumonia ATCC 43816; assay: Minimal Inhibitory Concentration (MIC) assay, Klebsiella pneumonia ATCC 43816; format: cell-based; details: Klebsiella pneumoniae, ATCC43816, 20 h, read-out: MIC Klebsiella pneumoniae ATCC43816
Experimental: as §1, §2, §3

[3] = Human Microsome Stability Assay; format: in vitro ADME; details: 1 μM compound, 0.5 mg/mL liver microsomal protein, 1 mM NADPH, pH 7.4, 37° C., 0-30 minutes; for CLint scaled at 1 µM: human, liver microsomes, read-out: Clearance of Human microsome
Experimental: The human microsomal stability assay is used for early assessment of metabolic stability of compounds of present invention in human liver microsomes. Human liver microsomes (Cat. NO.: 452117, Corning, USA) were pre-incubated with test compound for 10 minutes at 37° C. in 100 mM potassium phosphate buffer, pH 7.4. The reactions were initiated by adding NADPH regenerating system. The final incubation mixtures contained 1 μM compound, 0.5 mg/mL liver microsomal protein, 1 mM MgCl2 and 1 mM NADPH in 100 mM potassium phosphate buffer, pH 7.4. After incubation times of 0, 3, 6, 9, 15 and 30 minutes at 37° C., 300 μL of cold acetonitrile (including internal standard) was added to 100 μL incubation mixture to terminate the reaction. Following precipitation and centrifugation, the amount of compound remaining in the samples were determined by LC-MS/MS. Controls of no NADPH regenerating system at zero and 30 minutes were also prepared and analyzed.

Question: Which MIC [1] does the source give for Cc1cc(C(F)(F)F)nc(N2CCN(S(=O)(=O)c3ccc4c(c3)OC[C@H]3[C@H](CN)OC(=O)N43)CC2)n1 (relative stereo) [Example 002] here?
Answer: 0.66 µg/mL (≈ 1.25 µM)

Question: What about the MIC [2] of the same molecule?
Answer: 1.32 µg/mL (≈ 2.5 µM)

Question: What about the CLint scaled at 1 µM [3] of the same molecule?
Answer: 10 mL/min/kg

Question: Which MIC [1] does the source give for Cc1cc(C(F)(F)F)nc(N2CCN(S(=O)(=O)c3ccc4c(c3)OC[C@H]3[C@@H](CN)OC(=O)N43)CC2)n1 (relative stereo) [Example 006] here?
Answer: 0.44 µg/mL (≈ 0.833 µM)

Question: And the MIC [2]?
Answer: 0.88 µg/mL (≈ 1.67 µM)

Question: What about the CLint scaled at 1 µM [3] of the same molecule?
Answer: 12.5 mL/min/kg

Question: With NC[C@H]1OC(=O)N2c3ccc(S(=O)(=O)N4CCN(c5cc(C(F)(F)F)cc(Cl)n5)CC4)cc3OC[C@@H]12 (relative stereo) [Example 007] as the molecule, how does the MIC [1] read?
Answer: 0.46 µg/mL (≈ 0.84 µM)

Question: What about the MIC [2] of the same molecule?
Answer: 0.91 µg/mL (≈ 1.66 µM)

Question: And the CLint scaled at 1 µM [3]?
Answer: 9.6 mL/min/kg

Question: With NC[C@H]1OC(=O)N2c3ccc(S(=O)(=O)N4CCN(c5cc(C(F)(F)C6CCCNC6)cc(Cl)n5)CC4)cc3OC[C@H]12 (relative stereo) [Example 009] as the molecule, how does the MIC [1] read?
Answer: 0.66 µg/mL (≈ 1.08 µM)

Question: And the MIC [2]?
Answer: 0.66 µg/mL (≈ 1.08 µM)

Question: What about the “Clearance of Human microsome” value [3] of the same molecule?
Answer: 6.2 mL/min/kg

Question: Which MIC [1] does the source give for O=C1O[C@H](CO)[C@@H]2COc3cc(S(=O)(=O)N4CCN(c5cc(C(F)(F)C6CCCNC6)cc(Cl)n5)CC4)ccc3N12 (relative stereo) [Example 033] here?
Answer: 1 µg/mL (≈ 1.63 µM)

Question: And the MIC [2]?
Answer: 1.55 µg/mL (≈ 2.52 µM)

Question: What about the CLint scaled at 1 µM [3] of the same molecule?
Answer: 13.6 mL/min/kg

Question: What does the source list for NCCCNC(=O)[C@H]1CC[C@H](C(F)(F)c2cc(Cl)nc(N3CCN(S(=O)(=O)c4ccc5c(c4)OC[C@@H]4[C@H](CN)OC(=O)N54)CC3)c2)CC1 (stereo in doubt) [Example 047, 4-[[2-[4-[[cis-3-(aminomethyl)-1-oxo-3a,4-dihydro-3H-oxazolo[4,3-c][1,4]benzoxazin-7-yl]sulfonyl]piperazin-1-yl]-6-chloro-4-pyridyl]-difluoro-methyl]-N-(3-aminopropyl)cyclohexanecarboxamide]?
Answer: MIC [1]: 0.58 µg/mL (≈ 0.814 µM); MIC [2]: 0.59 µg/mL (≈ 0.828 µM); CLint scaled at 1 µM [3]: 7 mL/min/kg

Question: With NC[C@@H]1OC(=O)N2c3ccc(S(=O)(=O)N4CCN(c5cc(C(F)(F)[C@@H]6COCCO6)cc(Cl)n5)CC4)cc3OC[C@H]12 [Example 022, (3S,3aR)-3-(aminomethyl)-7-[4-[6-chloro-4-[[(2S)-1,4-dioxan-2-yl]-difluoro-methyl]-2-pyridyl]piperazin-1-yl]sulfonyl-3a,4-dihydro-3H-oxazolo[4,3-c][1,4]benzoxazin-1-one] as the molecule, how does the MIC [1] read?
Answer: 0.44 µg/mL (≈ 0.714 µM)

Question: And the MIC [2]?
Answer: 0.3 µg/mL (≈ 0.487 µM)

Question: What does the source list for NC[C@@H]1OC(=O)N2c3ccc(S(=O)(=O)N4CCN(c5cc(C(F)(F)[C@H]6CNCCO6)cc(Cl)n5)CC4)cc3OC[C@@H]12 [Example 023, (3S,3aS)-3-(aminomethyl)-7-[4-[6-chloro-4-[difluoro-[(2R)-morpholin-2-yl]methyl]-2-pyridyl]piperazin-1-yl]sulfonyl-3a,4-dihydro-3H-oxazolo[4,3-c][1,4]benzoxazin-1-one]?
Answer: MIC [1]: 0.33 µg/mL (≈ 0.537 µM); MIC [2]: 0.33 µg/mL (≈ 0.537 µM)

Question: Which results are given for NC[C@H]1OC(=O)N2c3ccc(S(=O)(=O)N4CCN(c5cc(C(F)(F)[C@H]6CNCCO6)cc(Cl)n5)CC4)cc3OC[C@H]12 [Example 024, (3R,3aR)-3-(aminomethyl)-7-[4-[6-chloro-4-[difluoro-[(2R)-morpholin-2-yl]methyl]-2-pyridyl]piperazin-1-yl]sulfonyl-3a,4-dihydro-3H-oxazolo[4,3-c][1,4]benzoxazin-1-one]?
Answer: MIC [1]: 0.66 µg/mL (≈ 1.07 µM); MIC [2]: 1.32 µg/mL (≈ 2.15 µM)

Question: What does the source list for O=C1CCC2COc3cc(S(=O)(=O)N4CCN(c5cc(C(F)(F)[C@H]6CNCCO6)cc(Cl)n5)CC4)ccc3N12 (stereo partly drawn) [Example 030, 7-[4-[6-Chloro-4-[difluoro-[(2R)-morpholin-2-yl]methyl]-2-pyridyl]piperazin-1-yl]sulfonyl-2,3,3a,4-tetrahydropyrrolo[2,1-c][1,4]benzoxazin-1-one]?
Answer: MIC [1]: 0.49 µg/mL (≈ 0.839 µM); MIC [2]: 0.492 µg/mL (≈ 0.842 µM)

Question: What does the source list for NC1CC(=O)N2c3ccc(S(=O)(=O)N4CCN(c5cc(C(F)(F)[C@H]6CNCCO6)cc(Cl)n5)CC4)cc3OCC12 (stereo partly drawn) [Example 031, 3-Amino-7-[4-[6-chloro-4-[difluoro-[(2R)-morpholin-2-yl]methyl]-2-pyridyl]piperazin-1-yl]sulfonyl-2,3,3a,4-tetrahydropyrrolo[2,1-c][1,4]benzoxazin-1-one]?
Answer: MIC [1]: 0.25 µg/mL (≈ 0.417 µM); MIC [2]: 1.01 µg/mL (≈ 1.68 µM)

Question: What does the source list for O=C1O[C@@H](CO)[C@H]2COc3cc(S(=O)(=O)N4CCN(c5cc(C(F)(F)C67CNCC6C7)cc(Cl)n5)CC4)ccc3N12 (stereo partly drawn) [Example 036, (3R,3aR)-7-[4-[4-[3-azabicyclo[3.1.0]hexan-1-yl(difluoro)methyl]-6-chloro-2-pyridyl]piperazin-1-yl]sulfonyl-3-(hydroxymethyl)-3a,4-dihydro-3H-oxazolo[4,3-c][1,4]benzoxazin-1-one]?
Answer: MIC [1]: 0.14 µg/mL (≈ 0.229 µM); MIC [2]: 0.14 µg/mL (≈ 0.229 µM)

Question: For CC1COC(C(F)(F)c2cc(Cl)nc(N3CCN(S(=O)(=O)c4ccc5c(c4)OC[C@H]4[C@H](CO)OC(=O)N54)CC3)c2)CN1 (stereo partly drawn) [Example 040, (3R,3aS)-7-[4-[6-chloro-4-[difluoro-(5-methylmorpholin-2-yl)methyl]-2-pyridyl]piperazin-1-yl]sulfonyl-3-(hydroxymethyl)-3a,4-dihydro-3H-oxazolo[4,3-c][1,4]benzoxazin-1-one], which MIC [1] is on record?
Answer: 0.29 µg/mL (≈ 0.46 µM)

Question: What about the MIC [2] of the same molecule?
Answer: 0.29 µg/mL (≈ 0.46 µM)

Question: Which MIC [1] does the source give for CC(N)C(=O)N1CC(C(F)(F)c2cc(Cl)nc(N3CCN(S(=O)(=O)c4ccc5c(c4)OC[C@@H]4[C@H](CO)OC(=O)N54)CC3)c2)C1 (stereo partly drawn) [Example 041, (3R,3aR)-7-[4-[4-[[1-(2-aminopropanoyl)azetidin-3-yl]-difluoro-methyl]-6-chloro-2-pyridyl]piperazin-1-yl]sulfonyl-3-(hydroxymethyl)-3a,4-dihydro-3H-oxazolo[4,3-c][1,4]benzoxazin-1-one] here?
Answer: 2.4 µg/mL (≈ 3.65 µM)

Question: And the MIC [2]?
Answer: 2.4 µg/mL (≈ 3.65 µM)

Question: For NC(=O)CN1CCC(C(F)(F)c2cc(Cl)nc(N3CCN(S(=O)(=O)c4ccc5c(c4)OC[C@@H]4[C@H](CO)OC(=O)N54)CC3)c2)CC1 [Example 056, 2-[4-[[2-[4-[[(3R,3aR)-3-(hydroxymethyl)-1-oxo-3a,4-dihydro-3H-oxazolo[4,3-c][1,4]benzoxazin-7-yl]sulfonyl]piperazin-1-yl]-6-chloro-4-pyridyl]-difluoro-methyl]-1-piperidyl]acetamide], which MIC [1] is on record?
Answer: 0.31 µg/mL (≈ 0.462 µM)

Question: What about the MIC [2] of the same molecule?
Answer: 0.23 µg/mL (≈ 0.343 µM)

Question: Which results are given for C[N@@+]1(CC(N)=O)CCC[C@H]1C(=O)N[C@H]1CC[C@H](C(F)(F)c2cc(Cl)nc(N3CCN(S(=O)(=O)c4ccc5c(c4)OC[C@@H]4[C@H](CO)OC(=O)N54)CC3)c2)CC1 [Example 058, (1S,2S)—N-[4-[[2-[4-[[(3R,3aR)-3-(hydroxymethyl)-1-oxo-3a,4-dihydro-3H-oxazolo[4,3-c][1,4]benzoxazin-7-yl]sulfonyl]piperazin-1-yl]-6-chloro-4-pyridyl]-difluoro-methyl]cyclohexyl]-1-(2-amino-2-oxo-ethyl)-1-methyl-pyrrolidin-1-ium-2-carboxamide;chloride]?
Answer: MIC [1]: 1.3 µg/mL; MIC [2]: 1.32 µg/mL

Question: For C[N@+]1(CC(N)=O)CCC[C@H]1C(=O)N[C@H]1CC[C@H](C(F)(F)c2cc(Cl)nc(N3CCN(S(=O)(=O)c4ccc5c(c4)OC[C@@H]4[C@H](CO)OC(=O)N54)CC3)c2)CC1 [Example 059, (1R,2S)—N-[4-[[2-[4-[[(3R,3aR)-3-(hydroxymethyl)-1-oxo-3a,4-dihydro-3H-oxazolo[4,3-c][1,4]benzoxazin-7-yl]sulfonyl]piperazin-1-yl]-6-chloro-4-pyridyl]-difluoro-methyl]cyclohexyl]-1-(2-amino-2-oxo-ethyl)-1-methyl-pyrrolidin-1-ium-2-carboxamide;chloride], which MIC [1] is on record?
Answer: 0.66 µg/mL

Question: And the MIC [2]?
Answer: 0.66 µg/mL

Question: Which MIC [1] does the source give for NCC[N+]1(CCNC(=O)[C@H]2CC[C@H](C(F)(F)c3cc(Cl)nc(N4CCN(S(=O)(=O)c5ccc6c(c5)OC[C@H]5[C@H](CO)OC(=O)N65)CC4)c3)CC2)CCCC1.[Cl-] [Example 064, 4-[[2-[4-[[(3R,3aS)-3-(hydroxymethyl)-1-oxo-3a,4-dihydro-3H-oxazolo[4,3-c][1,4]benzoxazin-7-yl]sulfonyl]piperazin-1-yl]-6-chloro-4-pyridyl]-difluoro-methyl]-N-[2-[1-(2-aminoethyl)pyrrolidin-1-ium-1-yl]ethyl]cyclohexanecarboxamide; chloride] here?
Answer: 2.8 µg/mL

Question: And the MIC [2]?
Answer: 2.85 µg/mL
